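Five compound concentrations were applied to cells in 96-well plates for 48 hours; endpoints were derived by simple linear interpolation of the resulting dose-response curve. GI50: concentration for 50% inhibition of growth.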 The source made the active and inactive calls. Cut-off read from the data, not from the text of the source: active = GI50 up to about 1.1 µM and inactive = higher.
Legend:
Experiment in all cases: DTP human tumour cell line panel, 48 h
K562 = tested on: K562
KM12 = tested on: KM12
SNB-75 = tested on: SNB-75
786-0 = tested on: 786-0
RXF 393 = tested on: RXF 393
SK-MEL-28 = tested on: SK-MEL-28
SF-295 = tested on: SF-295
DU-145 = tested on: DU-145
NCI-H226 = tested on: NCI-H226
MCF7 = tested on: MCF7
TK-10 = tested on: TK-10
HCT-116 = tested on: HCT-116
IGROV-1 = tested on: IGROV-1
ACHN = tested on: ACHN
UO-31 = tested on: UO-31
SW-620 = tested on: SW-620
HCC 2998 = tested on: HCC 2998
OVCAR-5 = tested on: OVCAR-5
OVCAR-4 = tested on: OVCAR-4

| Structure (SMILES) | GI50 (K562) | GI50 (KM12) | GI50 (SNB-75) | GI50 (786-0) | GI50 (RXF 393) | GI50 (SK-MEL-28) | GI50 (SF-295) | GI50 (DU-145) | GI50 (NCI-H226) | GI50 (MCF7) | GI50 (TK-10) | GI50 (HCT-116) | GI50 (IGROV-1) | GI50 (ACHN) | GI50 (UO-31) | GI50 (SW-620) | GI50 (HCC 2998) | GI50 (OVCAR-5) | GI50 (OVCAR-4) |
| --- | --- | --- | --- | --- | --- | --- | --- | --- | --- | --- | --- | --- | --- | --- | --- | --- | --- | --- | --- |
| Cc1ccc(/C=C2\Cc3cc(C)c(C)cc3C2=O)c(C(=O)O)c1 | 44.1 µM (inactive) | 35.8 µM (inactive) | 30.3 µM (inactive) | 40.2 µM (inactive) | 28.2 µM (inactive) | 52.5 µM (inactive) | 33.5 µM (inactive) | 26.7 µM (inactive) | 19.3 µM (inactive) | 24.7 µM (inactive) | > 100 µM (inactive) | 32.1 µM (inactive) | 37.8 µM (inactive) | 46.3 µM (inactive) | 29 µM (inactive) | 34.6 µM (inactive) | 26.1 µM (inactive) | – | – |
| Cc1nc2sccn2c1/C=C1/C(=O)Nc2cccc(Cl)c21 | 45.3 µM (inactive) | 38.3 µM (inactive) | > 100 µM (inactive) | > 100 µM (inactive) | > 100 µM (inactive) | > 100 µM (inactive) | 51.6 µM (inactive) | > 100 µM (inactive) | – | 23 µM (inactive) | > 100 µM (inactive) | 89.9 µM (inactive) | 53.6 µM (inactive) | > 100 µM (inactive) | > 100 µM (inactive) | 41.4 µM (inactive) | > 100 µM (inactive) | 73.5 µM (inactive) | – |
| O=C1NC(N2CCOCC2)=N/C1=C\c1ccccc1 | – | > 100 µM (inactive) | > 100 µM (inactive) | > 100 µM (inactive) | – | > 100 µM (inactive) | > 100 µM (inactive) | > 100 µM (inactive) | > 100 µM (inactive) | > 100 µM (inactive) | > 100 µM (inactive) | > 100 µM (inactive) | > 100 µM (inactive) | > 100 µM (inactive) | > 100 µM (inactive) | > 100 µM (inactive) | > 100 µM (inactive) | > 100 µM (inactive) | > 100 µM (inactive) |
| Cc1ccc(N2C(=O)C(=O)N(/N=C3\C(=O)Nc4ccccc43)C2=S)cc1 | 37.1 µM (inactive) | 65.8 µM (inactive) | > 100 µM (inactive) | 46.6 µM (inactive) | 39.1 µM (inactive) | > 100 µM (inactive) | 54.1 µM (inactive) | > 100 µM (inactive) | – | 43.2 µM (inactive) | > 100 µM (inactive) | 65.8 µM (inactive) | 95.5 µM (inactive) | 67.6 µM (inactive) | > 100 µM (inactive) | 44.2 µM (inactive) | 93.5 µM (inactive) | > 100 µM (inactive) | – |
| CCOC(=O)c1cc(C2CCN(Cc3ccccc3)C2=O)c(C(=O)/C=C(/C)N)[nH]1 (stereo not drawn) | > 100 µM (inactive) | > 100 µM (inactive) | > 100 µM (inactive) | 55.6 µM (inactive) | > 100 µM (inactive) | > 100 µM (inactive) | 46.3 µM (inactive) | > 100 µM (inactive) | – | 96.6 µM (inactive) | > 100 µM (inactive) | 90.6 µM (inactive) | 67.5 µM (inactive) | > 100 µM (inactive) | 91.2 µM (inactive) | > 100 µM (inactive) | > 100 µM (inactive) | > 100 µM (inactive) | 72.9 µM (inactive) |
| C/C(=N\NC(=O)c1ccccc1O)c1cccc(/C(C)=N/NC(=O)c2ccccc2O)n1 | 15 µM (inactive) | 6.5 µM (inactive) | 12.1 µM (inactive) | 5.32 µM (inactive) | 8.55 µM (inactive) | – | 12.5 µM (inactive) | 13.3 µM (inactive) | – | 26.2 µM (inactive) | 18.6 µM (inactive) | – | – | 4.27 µM (inactive) | – | 5.74 µM (inactive) | 1.02 µM (active) | – | – |

— ChEMBL document CHEMBL1201862, “PubChem BioAssay data set” (2004)
